Measured values: US6534447B1, “Herbicidal pyridine compounds” (BASF Aktiengesellschaft, priority 1999, dated 2003)

Experiments:
Assay type in all cases: in vivo
[1] = system: Galium aparine (GALAP, cleaver); experiment: Pre-emergence herbicidal evaluation; details: 3 weeks after treatment
From the text: (§1) The pre-emergence herbicidal activity of the compounds of the present invention is exemplified by the following test in which the seeds of a variety of monocotyledonous and dicotyledonous plants are seperately mixed with potting soil and planted on top of approximately one inch of soil in separate post. After planting, the pots are sprayed with the selected aqueous acetone solution. containing test compound in sufficient quantity to provide the equivalent of about 0.025 to 0.4 kg per hectare of test compound per pot. The treated pots are then placed on greenhouse benches, watered and cared for in accordance with conventional greenhouse procedures. From 3 weeks after treatment, the tests are terminated and each pot is examined and rated according to the rating system set forth below. [table] [table]

[2] = system: Ipomoea hederacea (IPOHE, morning glory); experiment: Pre-emergence herbicidal evaluation; details: 3 weeks after treatment
From the text: as §1

[3] = system: Setaria viridis (SETVI, green foxtail); experiment: Pre-emergence herbicidal evaluation; details: 3 weeks after treatment
From the text: as §1

[4] = system: Abutilon theophrasti (ABUTH, velvetleaf); experiment: Pre-emergence herbicidal evaluation; details: 3 weeks after treatment
From the text: as §1

[5] = system: Stellaria media (STEME, chickweed); experiment: Pre-emergence herbicidal evaluation; details: 3 weeks after treatment
From the text: as §1

[6] = system: Matricaria inodora (MATIN, mayweed); experiment: Pre-emergence herbicidal evaluation; details: 3 weeks after treatment
From the text: as §1

[7] = system: Alopecurus myosuroides (ALOMY, black grass); experiment: Pre-emergence herbicidal evaluation; details: 3 weeks after treatment
From the text: as §1

[8] = system: Echinochloa grus galli (ECHCG, barnyard grass); experiment: Pre-emergence herbicidal evaluation; details: 3 weeks after treatment
From the text: as §1

[9] = system: Triticum aestivum (TRZAW, winter wheat); experiment: Pre-emergence herbicidal evaluation (crop); details: 3 weeks after treatment
From the text: as §1

[10] = system: Glycine max (GLXMA, soyabeans); experiment: Pre-emergence herbicidal evaluation (crop); details: 3 weeks after treatment
From the text: as §1

Zea mays (ZEAMX, maize) = experiment: Pre-emergence herbicidal evaluation (crop); details: 3 weeks after treatment
From the text: as §1

[11] = system: Galium aparine (GALAP, cleaver); experiment: Post-emergence herbicidal evaluation; details: 3 weeks after treatment
Procedure: (§2) These acetone solutions are diluted with water and the resulting formulations applied at dosage levels equivalent of about 0.025 to 0.4 kg per hectare of test compound per pot. After spraying the plants are placed on greenhouse benches and are cared for in the usual manner, commensurate with conventional greenhouse practices. From 3 weeks after treatment, the seedling plants are examined and rated according to the rating system provided above. A rating 0 indicates growth as untreated control, a rating 9 indicates death.

[12] = system: Ipomoea hederacea (IPOHE, morning glory); experiment: Post-emergence herbicidal evaluation; details: 3 weeks after treatment
Procedure: as §2

[13] = system: Setaria viridis (SETVI, green foxtail); experiment: Post-emergence herbicidal evaluation; details: 3 weeks after treatment
Procedure: as §2

[14] = system: Abutilon theophrasti (ABUTH, velvetleaf); experiment: Post-emergence herbicidal evaluation; details: 3 weeks after treatment
Procedure: as §2

[15] = system: Stellaria media (STEME, chickweed); experiment: Post-emergence herbicidal evaluation; details: 3 weeks after treatment
Procedure: as §2

[16] = system: Matricaria inodora (MATIN, mayweed); experiment: Post-emergence herbicidal evaluation; details: 3 weeks after treatment
Procedure: as §2

[17] = system: Alopecurus myosuroides (ALOMY, black grass); experiment: Post-emergence herbicidal evaluation; details: 3 weeks after treatment
Procedure: as §2

[18] = system: Echinochloa grus galli (ECHCG, barnyard grass); experiment: Post-emergence herbicidal evaluation; details: 3 weeks after treatment
Procedure: as §2

[19] = system: Dolium multiflorum (LOLMU, ryegrass); experiment: Post-emergence herbicidal evaluation; details: rate 0.100 kg/ha, 3 weeks after treatment
Procedure: as §2

Cc1cc(OCCC(Cl)SC(F)(F)F)nc(Oc2cc(C(F)(F)F)nn2C)c1 (stereo not shown) [Example 3, 2-(1-Methyl-3-trifluoromethylpyrazol-5-yloxy)-4-methyl-6-(3-chloro-3-trifluoromethylthiopropyloxy)pyridine]
1 (1 - Trace effect): TRZAW rating ([9]; rate 0.025 kg/ha) | GLXMA rating ([10]; rate 0.025 kg/ha) | GLXMA rating ([10]; rate 0.100 kg/ha)
8 (8 - Approaching complete kill): SETVI rating ([3]; rate 0.025 kg/ha) | MATIN rating ([6]; rate 0.025 kg/ha) | ALOMY rating ([7]; rate 0.100 kg/ha) | ALOMY rating ([7]; rate 0.400 kg/ha) | ECHCG rating ([8]; rate 0.400 kg/ha) | GALAP rating ([11]; rate 0.025 kg/ha) | GALAP rating ([11]; rate 0.100 kg/ha) | GALAP rating ([11]; rate 0.400 kg/ha) | SETVI rating ([13]; rate 0.025 kg/ha) | ECHCG rating ([18]; rate 0.100 kg/ha) | LOLMU rating [19]
6 (6 - Herbicidal effect): ECHCG rating ([8]; rate 0.100 kg/ha) | STEME rating ([15]; rate 0.400 kg/ha) | MATIN rating ([16]; rate 0.100 kg/ha) | ECHCG rating ([18]; rate 0.025 kg/ha)
9 (9 - Complete kill): IPOHE rating ([2]; rate 0.100 kg/ha) | IPOHE rating ([2]; rate 0.400 kg/ha) | SETVI rating ([3]; rate 0.100 kg/ha) | SETVI rating ([3]; rate 0.400 kg/ha) | STEME rating ([5]; rate 0.025 kg/ha) | STEME rating ([5]; rate 0.100 kg/ha) | STEME rating ([5]; rate 0.400 kg/ha) | MATIN rating ([6]; rate 0.100 kg/ha) | MATIN rating ([6]; rate 0.400 kg/ha) | IPOHE rating ([12]; rate 0.025 kg/ha) | IPOHE rating ([12]; rate 0.100 kg/ha) | IPOHE rating ([12]; rate 0.400 kg/ha) | SETVI rating ([13]; rate 0.100 kg/ha) | SETVI rating ([13]; rate 0.400 kg/ha) | ECHCG rating ([18]; rate 0.400 kg/ha)
7 (7 - Good herbicidal effect): GALAP rating ([1]; rate 0.100 kg/ha) | GALAP rating ([1]; rate 0.400 kg/ha) | IPOHE rating ([2]; rate 0.025 kg/ha) | ABUTH rating ([4]; rate 0.400 kg/ha) | ABUTH rating ([14]; rate 0.100 kg/ha) | ABUTH rating ([14]; rate 0.400 kg/ha) | MATIN rating ([16]; rate 0.400 kg/ha) | ALOMY rating ([17]; rate 0.100 kg/ha) | ALOMY rating ([17]; rate 0.400 kg/ha)
5 (5 - Definite injury): ABUTH rating ([4]; rate 0.025 kg/ha) | ABUTH rating ([4]; rate 0.100 kg/ha) | ALOMY rating ([7]; rate 0.025 kg/ha) | ABUTH rating ([14]; rate 0.025 kg/ha) | STEME rating ([15]; rate 0.100 kg/ha) | MATIN rating ([16]; rate 0.025 kg/ha) | ALOMY rating ([17]; rate 0.025 kg/ha)
2 (2 - Slight effect): GALAP rating ([1]; rate 0.025 kg/ha) | TRZAW rating ([9]; rate 0.100 kg/ha) | GLXMA rating ([10]; rate 0.400 kg/ha) | ZEAMX rating (Zea mays (ZEAMX, maize); rate 0.025 kg/ha) | ZEAMX rating (Zea mays (ZEAMX, maize); rate 0.100 kg/ha)
3 (3 - Moderate effect): TRZAW rating ([9]; rate 0.400 kg/ha) | ZEAMX rating (Zea mays (ZEAMX, maize); rate 0.400 kg/ha)
4 (4 - Injury): ECHCG rating ([8]; rate 0.025 kg/ha) | STEME rating ([15]; rate 0.025 kg/ha)
